# Experimental data: ChEMBL document CHEMBL5678804 (Cancer Cell, 2011)
# Calls of active or inactive are those of the source. The rule behind the calls is not given here.
# What was measured:
# [1] = test system: BaF3; assay: Antileukemic activity against mouse BaF3 cells harbouring BCR-ABL1 T315I mutant transduced with 5-FU treated bone marrow xenografted in Balb/c mouse assessed as improvement in circulating leukocyte count at 100 mg/kg, po administered once daily measured upto 56 days; format: functional, organism-based; conditions: time <= 56.0 day
# [2] = biological target: Tyrosine-protein kinase Fes/Fps (Homo sapiens, UniProt P07332); assay: Inhibition of human wild type FES using PolyEY as substrate preincubated for 2 hrs followed by ATP addition and measured every 2 mins for […] by spectrophotometric analysis
# [3] = biological target: Vascular endothelial growth factor receptor 3 (Homo sapiens, UniProt P35916); assay: Inhibition of human wild type FLT4 using PolyEY as substrate preincubated for 2 hrs followed by ATP addition and measured every 2 mins for […] by spectrophotometric analysis
# [4] = biological target: Dual specificity protein kinase TTK (Homo sapiens, UniProt P33981); assay: Inhibition of human wild type TTK using RBER-CHKtide as substrate preincubated for 2 hrs followed by ATP addition and measured every 2 mins for […] by spectrophotometric analysis
# [5] = biological target: Casein kinase I isoform alpha (Homo sapiens, UniProt P48729); assay: Inhibition of human wild type CK1 alpha using Casein as substrate preincubated for 2 hrs followed by ATP addition and measured every 2 mins for […] by spectrophotometric analysis
# [6] = biological target: Megakaryocyte-associated tyrosine-protein kinase (Homo sapiens, UniProt P42679); assay: Inhibition of human wild type CTK using PolyEY as substrate preincubated for 2 hrs followed by ATP addition and measured every 2 mins for […] by spectrophotometric analysis
# [7] = biological target: Serine/threonine-protein kinase 17A (Homo sapiens, UniProt Q9UEE5); assay: Inhibition of human wild type DRAK1 using RB-CTF as substrate preincubated for 2 hrs followed by ATP addition and measured every 2 mins for […] by spectrophotometric analysis
# [8] = biological target: Mitogen-activated protein kinase 3 (Homo sapiens, UniProt P27361); assay: Inhibition of human wild type ERK1 using RBER-CHKtide as substrate preincubated for 2 hrs followed by ATP addition and measured every 2 mins for […] by spectrophotometric analysis
# [9] = biological target: Beta-adrenergic receptor kinase 1 (Homo sapiens, UniProt P25098); assay: Inhibition of human wild type GRK2 using Casein as substrate preincubated for 2 hrs followed by ATP addition and measured every 2 mins for […] by spectrophotometric analysis
# [10] = biological target: Glycogen synthase kinase-3 beta (Homo sapiens, UniProt P49841); assay: Inhibition of human wild type GSK3 beta using RBER-CHKtide as substrate preincubated for 2 hrs followed by ATP addition and measured every 2 mins for […] by spectrophotometric analysis
# [11] = biological target: MAP kinase-activated protein kinase 2 (Homo sapiens, UniProt P49137); assay: Inhibition of human wild type MAPKAPK2 using RBER-CHKtide as substrate preincubated for 2 hrs followed by ATP addition and measured every 2 mins for […] by spectrophotometric analysis
# [12] = biological target: Myosin light chain kinase 2, skeletal/cardiac muscle (Homo sapiens, UniProt Q9H1R3); assay: Inhibition of human wild type MLCK2 using RB-S6P as substrate preincubated for 2 hrs followed by ATP addition and measured every 2 mins for […] by spectrophotometric analysis
# [13] = biological target: SRSF protein kinase 3 (Homo sapiens, UniProt Q9UPE1); assay: Inhibition of human wild type MSSK1 using RBER-CHKtide as substrate preincubated for 2 hrs followed by ATP addition and measured every 2 mins for […] by spectrophotometric analysis
# [14] = biological target: Muscle, skeletal receptor tyrosine-protein kinase (Homo sapiens, UniProt O15146); assay: Inhibition of human wild type MUSK using Poly(Ala,Glu,Lys,Tyr)6:2:5:1 as substrate preincubated for 2 hrs followed by ATP addition and measured every 2 mins for […] by spectrophotometric analysis
# [15] = biological target: Lymphokine-activated killer T-cell-originated protein kinase (Homo sapiens, UniProt Q96KB5); assay: Inhibition of human wild type PBK using Histon H1 as substrate preincubated for 2 hrs followed by ATP addition and measured every 2 mins for […] by spectrophotometric analysis
# [16] = biological target: Serine/threonine-protein kinase pim-1 (Homo sapiens, UniProt P11309); assay: Inhibition of human wild type PIM1 using RBER-GSK3(14to 27) as substrate preincubated for 2 hrs followed by ATP addition and measured every 2 mins for […] by spectrophotometric analysis
# [17] = biological target: Protein kinase C delta type (Homo sapiens, UniProt Q05655); assay: Inhibition of human wild type PKC delta using 3xChocktide-PKC(19to 31) as substrate preincubated for 2 hrs followed by ATP addition and measured every 2 mins for […] by spectrophotometric analysis
# [18] = biological target: Receptor-interacting serine/threonine-protein kinase 2 (Homo sapiens, UniProt O43353); assay: Inhibition of human wild type RIPK2 using RBER-CHKtide as substrate preincubated for 2 hrs followed by ATP addition and measured every 2 mins for […] by spectrophotometric analysis
# [19] = biological target: Non-receptor tyrosine-protein kinase TYK2 (Homo sapiens, UniProt P29597); assay: Inhibition of human wild type TYK2 using Poly(Ala,Glu,Lys,Tyr)6:2:5:1 as substrate preincubated for 2 hrs followed by ATP addition and measured every 2 mins for […] by spectrophotometric analysis
# [20] = biological target: Serine/threonine-protein kinase ULK1 (Homo sapiens, UniProt O75385); assay: Inhibition of human wild type ULK1 using Casein as substrate preincubated for 2 hrs followed by ATP addition and measured every 2 mins for […] by spectrophotometric analysis
# [21] = biological target: Serine/threonine-protein kinase WNK2 (Homo sapiens, UniProt Q9Y3S1); assay: Inhibition of human wild type WNK2 using RBER-CHKtide as substrate preincubated for 2 hrs followed by ATP addition and measured every 2 mins for […] by spectrophotometric analysis
# [22] = test system: BaF3; assay: In vivo inhibition of BCR-ABL1 T315I signalling in mouse BaF3 cells harbouring BCR-ABL1 T315I mutant xenografted in Balb/c mouse model at 100 mg/kg, po administered as single dose measured after 8 hrs by flow cytometry analysis; format: functional, organism-based
# [23] = Toxicity in Balb/c mouse assessed as hindlimb paralysis; conditions: in vivo
# [24] = biological target: Bcr/Abl fusion protein (Homo sapiens) (UniProt P00519+P11274); assay: Inhibition of BCR-ABL1 phosphorylation in Ph+ B-ALL patient with […] mutation derived human Leukemia cell at 50 to 1000 nM by immunoblot analysis; format: cell-based; conditions: dose 50-1000 nM
# [25] = test system: Leukemia cell; assay: Cytotoxicity against human Leukemia cell assessed as reduction in cell viability measured after 72 hrs by MTT assay; format: functional, cell-based
# [26] = biological target: T1, Tyrosine-protein kinase ABL1 (Homo sapiens, UniProt P00519); conditions: Sf9, time 2.0 hrs
# [27] = biological target: T1, Tyrosine-protein kinase ABL1; conditions: Sf9, time 2.0 hrs; remark: listed apart in the source
# [28] = test system: Tyrosine-protein kinase ABL1 (Homo sapiens), P00519 [T315I]; conditions: time 2.0 hrs
# [29] = test system: BaF3; assay: cells; conditions: Mus musculus, BaF3, 72 h
# Chain of Tyrosine-protein kinase Fes/Fps (P07332 whole entry): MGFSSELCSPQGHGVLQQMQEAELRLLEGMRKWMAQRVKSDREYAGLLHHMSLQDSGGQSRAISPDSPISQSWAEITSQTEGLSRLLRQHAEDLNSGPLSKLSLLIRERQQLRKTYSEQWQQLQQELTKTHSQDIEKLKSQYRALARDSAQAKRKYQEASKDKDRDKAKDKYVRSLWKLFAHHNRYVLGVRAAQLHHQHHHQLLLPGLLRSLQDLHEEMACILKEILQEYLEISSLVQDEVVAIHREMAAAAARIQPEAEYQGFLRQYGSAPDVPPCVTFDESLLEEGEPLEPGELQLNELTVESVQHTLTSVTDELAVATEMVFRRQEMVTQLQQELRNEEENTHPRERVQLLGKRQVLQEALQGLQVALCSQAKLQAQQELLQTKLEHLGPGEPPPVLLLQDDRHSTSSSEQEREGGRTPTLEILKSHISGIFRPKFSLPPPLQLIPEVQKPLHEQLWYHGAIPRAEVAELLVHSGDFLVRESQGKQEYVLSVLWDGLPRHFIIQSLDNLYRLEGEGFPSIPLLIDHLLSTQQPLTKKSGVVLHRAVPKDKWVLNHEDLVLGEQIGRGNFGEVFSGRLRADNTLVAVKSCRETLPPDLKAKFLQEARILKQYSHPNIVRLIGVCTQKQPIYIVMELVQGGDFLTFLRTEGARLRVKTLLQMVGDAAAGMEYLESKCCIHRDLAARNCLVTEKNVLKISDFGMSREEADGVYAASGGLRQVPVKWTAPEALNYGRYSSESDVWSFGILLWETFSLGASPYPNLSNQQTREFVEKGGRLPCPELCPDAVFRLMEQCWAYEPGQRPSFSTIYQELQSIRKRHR
# Chain of Casein kinase I isoform alpha (P48729 whole entry, canonical isoform): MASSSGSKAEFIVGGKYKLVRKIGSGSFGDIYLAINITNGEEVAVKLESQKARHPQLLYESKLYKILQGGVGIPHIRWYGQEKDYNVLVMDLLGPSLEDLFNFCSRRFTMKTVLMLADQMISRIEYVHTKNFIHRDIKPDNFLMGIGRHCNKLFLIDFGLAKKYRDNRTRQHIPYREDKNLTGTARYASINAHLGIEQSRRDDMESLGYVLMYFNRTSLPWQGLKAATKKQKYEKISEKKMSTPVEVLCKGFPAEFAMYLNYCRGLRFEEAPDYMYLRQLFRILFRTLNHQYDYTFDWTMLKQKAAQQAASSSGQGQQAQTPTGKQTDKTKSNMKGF
# Chain of Non-receptor tyrosine-protein kinase TYK2 (P29597 whole entry): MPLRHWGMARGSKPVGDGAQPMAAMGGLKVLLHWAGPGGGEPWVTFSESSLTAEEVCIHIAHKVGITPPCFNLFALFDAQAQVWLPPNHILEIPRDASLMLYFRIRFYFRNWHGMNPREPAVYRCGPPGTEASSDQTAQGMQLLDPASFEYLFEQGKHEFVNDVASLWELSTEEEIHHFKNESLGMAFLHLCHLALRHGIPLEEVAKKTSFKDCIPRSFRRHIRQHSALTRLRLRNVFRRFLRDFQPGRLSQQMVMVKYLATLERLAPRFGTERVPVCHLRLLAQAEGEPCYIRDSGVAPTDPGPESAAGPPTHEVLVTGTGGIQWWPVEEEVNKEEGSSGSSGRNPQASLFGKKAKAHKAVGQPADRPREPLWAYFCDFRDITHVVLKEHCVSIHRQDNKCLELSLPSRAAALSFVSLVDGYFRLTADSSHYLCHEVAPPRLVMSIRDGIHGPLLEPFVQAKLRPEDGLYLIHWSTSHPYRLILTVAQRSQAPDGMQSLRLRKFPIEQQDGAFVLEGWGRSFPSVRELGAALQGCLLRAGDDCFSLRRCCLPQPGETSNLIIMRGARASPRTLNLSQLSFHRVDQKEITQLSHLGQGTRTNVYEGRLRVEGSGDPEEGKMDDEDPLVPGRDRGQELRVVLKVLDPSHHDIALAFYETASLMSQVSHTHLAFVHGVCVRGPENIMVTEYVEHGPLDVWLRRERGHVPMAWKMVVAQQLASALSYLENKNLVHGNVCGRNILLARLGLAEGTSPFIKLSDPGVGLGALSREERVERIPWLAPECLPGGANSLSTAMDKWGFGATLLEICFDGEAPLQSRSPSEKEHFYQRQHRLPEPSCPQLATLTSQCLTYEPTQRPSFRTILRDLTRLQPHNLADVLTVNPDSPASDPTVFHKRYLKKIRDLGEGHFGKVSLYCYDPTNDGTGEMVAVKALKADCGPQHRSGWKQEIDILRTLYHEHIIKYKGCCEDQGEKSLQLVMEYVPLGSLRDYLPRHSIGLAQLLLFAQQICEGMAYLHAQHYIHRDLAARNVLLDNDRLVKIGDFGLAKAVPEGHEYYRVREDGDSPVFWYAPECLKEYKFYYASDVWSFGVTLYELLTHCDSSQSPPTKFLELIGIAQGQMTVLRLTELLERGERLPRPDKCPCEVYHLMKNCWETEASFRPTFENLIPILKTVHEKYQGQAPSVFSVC
# Chain of Serine/threonine-protein kinase 17A (Q9UEE5 whole entry): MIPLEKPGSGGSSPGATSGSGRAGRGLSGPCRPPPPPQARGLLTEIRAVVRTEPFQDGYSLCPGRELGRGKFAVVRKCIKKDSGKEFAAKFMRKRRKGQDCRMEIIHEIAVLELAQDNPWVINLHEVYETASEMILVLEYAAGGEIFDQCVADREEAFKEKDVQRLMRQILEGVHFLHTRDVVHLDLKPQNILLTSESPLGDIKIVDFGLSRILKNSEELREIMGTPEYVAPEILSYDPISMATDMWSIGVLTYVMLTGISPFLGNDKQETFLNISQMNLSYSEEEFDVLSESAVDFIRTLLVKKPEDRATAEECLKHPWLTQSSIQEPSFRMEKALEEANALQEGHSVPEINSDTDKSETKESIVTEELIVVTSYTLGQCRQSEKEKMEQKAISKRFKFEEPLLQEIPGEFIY
# Chain of Mitogen-activated protein kinase 3 (P27361 whole entry): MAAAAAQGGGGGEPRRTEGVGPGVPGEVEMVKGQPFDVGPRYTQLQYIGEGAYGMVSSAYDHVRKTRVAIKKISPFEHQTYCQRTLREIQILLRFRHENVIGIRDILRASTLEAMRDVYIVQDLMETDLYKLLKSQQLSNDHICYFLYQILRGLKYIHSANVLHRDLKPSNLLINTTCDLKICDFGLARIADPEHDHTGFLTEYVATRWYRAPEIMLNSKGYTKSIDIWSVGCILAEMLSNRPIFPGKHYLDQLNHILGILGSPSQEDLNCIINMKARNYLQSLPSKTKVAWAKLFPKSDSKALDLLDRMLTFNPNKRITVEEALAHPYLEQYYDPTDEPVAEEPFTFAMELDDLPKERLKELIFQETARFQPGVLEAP
# Chain of Myosin light chain kinase 2, skeletal/cardiac muscle (Q9H1R3 whole entry): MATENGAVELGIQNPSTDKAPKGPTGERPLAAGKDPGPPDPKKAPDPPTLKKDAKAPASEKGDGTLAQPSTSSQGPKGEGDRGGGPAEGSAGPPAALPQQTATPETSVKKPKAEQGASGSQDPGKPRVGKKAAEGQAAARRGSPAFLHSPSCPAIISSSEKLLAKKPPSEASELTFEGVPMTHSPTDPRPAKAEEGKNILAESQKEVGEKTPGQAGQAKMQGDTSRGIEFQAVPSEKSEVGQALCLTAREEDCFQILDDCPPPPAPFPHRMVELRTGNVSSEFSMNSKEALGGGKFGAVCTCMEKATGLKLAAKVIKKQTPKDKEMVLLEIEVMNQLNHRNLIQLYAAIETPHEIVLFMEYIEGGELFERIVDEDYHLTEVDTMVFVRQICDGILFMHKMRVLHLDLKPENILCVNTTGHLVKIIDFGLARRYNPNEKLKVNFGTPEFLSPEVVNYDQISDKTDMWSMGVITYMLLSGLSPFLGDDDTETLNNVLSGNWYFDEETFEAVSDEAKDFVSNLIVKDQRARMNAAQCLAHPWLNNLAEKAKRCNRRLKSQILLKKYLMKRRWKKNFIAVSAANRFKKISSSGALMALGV
# Chain of SRSF protein kinase 3 (Q9UPE1 whole entry): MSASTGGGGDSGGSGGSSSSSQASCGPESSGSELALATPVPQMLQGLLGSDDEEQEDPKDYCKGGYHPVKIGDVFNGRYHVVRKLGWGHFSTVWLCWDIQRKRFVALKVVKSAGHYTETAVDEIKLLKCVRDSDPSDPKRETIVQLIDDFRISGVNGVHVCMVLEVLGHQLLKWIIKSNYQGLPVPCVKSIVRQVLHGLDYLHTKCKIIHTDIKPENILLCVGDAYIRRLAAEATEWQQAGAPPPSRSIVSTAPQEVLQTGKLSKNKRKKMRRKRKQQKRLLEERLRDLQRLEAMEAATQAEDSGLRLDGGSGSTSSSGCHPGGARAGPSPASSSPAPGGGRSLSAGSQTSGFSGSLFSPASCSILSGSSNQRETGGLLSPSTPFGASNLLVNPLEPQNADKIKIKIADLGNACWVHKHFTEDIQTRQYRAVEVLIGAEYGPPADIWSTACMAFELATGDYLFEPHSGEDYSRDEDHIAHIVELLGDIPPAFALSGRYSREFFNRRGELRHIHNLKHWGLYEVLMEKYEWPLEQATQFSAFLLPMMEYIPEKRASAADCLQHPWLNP
# Chain of Glycogen synthase kinase-3 beta (P49841 whole entry): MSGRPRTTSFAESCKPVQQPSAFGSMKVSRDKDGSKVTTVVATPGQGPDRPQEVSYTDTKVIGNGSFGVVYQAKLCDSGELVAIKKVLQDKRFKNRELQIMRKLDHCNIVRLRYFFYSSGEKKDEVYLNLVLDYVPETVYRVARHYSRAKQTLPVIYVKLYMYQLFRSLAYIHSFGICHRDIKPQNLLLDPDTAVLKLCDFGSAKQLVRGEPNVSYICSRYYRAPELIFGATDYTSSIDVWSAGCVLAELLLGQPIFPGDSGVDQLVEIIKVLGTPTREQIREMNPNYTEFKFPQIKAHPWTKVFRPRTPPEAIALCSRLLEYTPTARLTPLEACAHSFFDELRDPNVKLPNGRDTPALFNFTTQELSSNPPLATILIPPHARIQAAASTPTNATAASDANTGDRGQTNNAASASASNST
compound,measurement,setting,value
CNC(=O)c1cc(Oc2ccc(NC(=O)Nc3cc(C(C)(C)C)nn3-c3ccc4ncccc4c3)c(F)c2)ccn1 [REBASTINIB],Activity,[1],Active
same,IC50,[2],160 nM
same,IC50,[3],240 nM
same,IC50,[4],290 nM
same,IC50,[5],> 1000 nM
same,IC50,[6],> 1000 nM
same,IC50,[7],> 1000 nM
same,IC50,[8],> 1000 nM
same,IC50,[9],> 1000 nM
same,IC50,[10],> 1000 nM
same,IC50,[11],> 1000 nM
same,IC50,[12],> 1000 nM
same,IC50,[13],> 1000 nM
same,IC50,[14],> 1000 nM
same,IC50,[15],> 1000 nM
same,IC50,[16],> 1000 nM
same,IC50,[17],> 1000 nM
same,IC50,[18],> 1000 nM
same,IC50,[19],> 1000 nM
same,IC50,[20],> 1000 nM
same,IC50,[21],> 1000 nM
same,inhibition,[22],Active
same,Activity,[23],Toxic
same,inhibition,[24],Active
same,Activity,[25],Active
same,Kdiss,[26],3.33e-05 s⁻¹
same,Kdiss,[27],3.33e-05 s⁻¹
same,Kdiss,[28],1.67e-05 s⁻¹
same,IC50,[29],6 nM
